# A melting point compilation (Tetko et al.; mined from patent text by program, amines drawn as free bases though some values may be those of a salt)
row,Compound,melting point [°C]
1,c1cc(-c2cnc(-c3ccc(-c4cnco4)o3)o2)nc(-c2cnc(-c3ccc(-c4cnco4)o3)o2)c1,> 250
2,NNC(=O)C(Cl)(Cl)c1cccc(Cl)n1,198 to 200
3,Sc1nc2ccccc2n1Cc1c(Cl)cccc1Cl,234 to 235
4,Cc1c(C)c2c(c(C)c1NCc1ccc(F)cc1)C(c1ccccc1)C(C)(C)O2 (stereo not given),93 to 95
5,N#CCON=C(C(=O)O)c1csc(NC(c2ccccc2)(c2ccccc2)c2ccccc2)n1,180
6,CCOC(=O)OC1=C(c2c(C)cc(C)cc2C)C(=O)N(C)C12CCN(OC)CC2,134 to 136
7,CC(C)CCn1cc(C(=O)c2ccccc2)c(=O)c2cn(C)nc21,231 to 233
8,COc1ccc2c(c1)CCC(Cc1ccccc1)C2=O (stereo not given),50 to 51
9,Cc1nc2cc(S(=O)(=O)n3c(CCC(=O)O)cc4cc(C(F)(F)F)ccc43)ccc2s1,235 to 236
10,NC(=O)C1CNCCN1CCCC(c1ccc(F)cc1)c1ccc(F)cc1 (stereo not given),114
11,COc1ccc(OC(C)=O)c(C(=O)O)c1,155 to 157
12,O=[N+]([O-])C(=Cc1cccs1)C1=NCCN1Cc1ccc(Cl)nc1,189 to 190
13,O=C(Cn1ccnc1)c1cccc2ccccc12,114 to 117
14,OC1CSC(Oc2cncc(C(F)(F)F)c2)C(O)C1O (stereo not given),160 to 161
15,Fc1ccc(-c2nc[nH]c2-c2cccs2)cc1,197 to 198
16,CC(C)(C)OC(=O)N1C(=O)[C@H](O)[C@@H]1C1CCCCC1,121 to 122
17,CCOCc1nc2c(N)nc3ccccc3c2n1NC(CC)CC,125 to 128
18,C=CCOc1ccc(C(=O)Oc2ccc(C(=O)O)cc2)cc1C12CC3CC(CC(C3)C1)C2,260 to 261
19,Cc1cc(C(=O)N2Cc3ccc(C(=O)NCc4cccnc4)n3Cc3ccccc32)ccc1-c1ccccc1,108 to 112
20,CCNC(=O)Nc1nc2cc(-c3cccnc3)cc(C(=O)NC)n2n1,> 300
21,N#Cc1c2c(c3c(c1N1CCCC1)Cc1ccccc1-3)-c1ccccc1C2,206 to 208
22,CC(C#N)(Sc1nc2ccccc2s1)c1ccc(C(=O)c2cccs2)cc1 (stereo not given),104 to 107
23,CC(C)(C)C(=O)OC(COc1cccc2[nH]ncc12)CN1CCC(COc2ccccc2)CC1 (stereo not given),116 to 118
24,Cc1cc(C)c(C)c(COc2cccc(-c3c(-c4ccccc4)coc3C(=O)NNC(=O)c3ccc(O)c(C#N)c3)c2)c1C,207 to 209
25,Cc1cccc(C(=O)c2cc3c(ccc4ccccc43)oc2=O)c1,190 to 192

row,Compound,melting point [°C]
1,CCCn1nc(-c2cnc(N)nc2-c2ccccc2)ccc1=O,188 to 189
2,CSc1nnc(-c2ccc3occ(-c4cccc(OC(F)(F)F)c4)c3c2)o1,113 to 114
3,Cc1cccnc1C(=O)c1[nH]c2cc(Cl)ccc2c1CC(=O)O,195 to 196
4,COC(=O)C(C#N)C(=O)Nc1ccc(C(F)(F)F)cc1 (stereo not given),186 to 189
5,O=C(O)c1cccc(CN2CCN(c3ccc(NC(=O)c4ccccc4-c4ccc(C(F)(F)F)cc4)cc3)CC2)c1,225 to 227
6,CN(C)Cc1cc(Cl)ccc1OCCN(C)Cc1ccc(C(N)=O)cc1,108 to 109
7,CN(C(=O)c1cccc(C(=O)O)c1)c1ccc2c(=O)n3c(nc2c1)C(=Cc1ccccc1)CC3,302 to 304
8,S=CN1CCC(C(c2ccccc2)c2ccccc2)CC1,152 to 154
9,CCOC(=O)c1cnc2c(cnn2CC)c1Cl,55 to 60
10,Cc1ccccc1C(=O)Nc1ccc(C(=O)N2CCCC(N(C)C)c3ccccc32)cc1O (stereo not given),202
11,CC(=O)OC1CSC(Oc2cccnc2-c2c(C)noc2C)C(OC(C)=O)C1OC(C)=O (stereo not given),68 to 72
12,O=C(O)COc1cccc2c1OCc1sc(SC(c3ccccc3)c3ccccc3)nc1-2,129 to 131
13,COCCc1nc2c(N)nc3ccccc3c2n1CC1(O)CCC1,169 to 171
14,CCCCN1CSC(=S)N(Cc2ccncc2)C1,75 to 80
15,CCOc1nc2c(N)nc3cccnc3c2n1[C@@H](C)c1ccccc1,187 to 190
16,O=C(O)COc1cccc2c1CCc1sc(S(=O)(=O)C(c3ccc(Cl)cc3)c3ccc(Cl)cc3)nc1-2,197 to 199
17,CCCCCCCCCCCCCCCCCCC(CC1(C)OCCO1)C(=O)OCC (stereo not given),33 to 34
18,Oc1ccnc2[nH]cc(-c3ccncn3)c12,> 210
19,CC(=O)Nc1cc(C)c2c(C)c(C)[nH]c2c1,255
20,COc1c(C)cc2c(c1C)C[C@@H]1c3ccccc3N[C@H]21 (relative stereo),117
21,CC(C)(C)OC(=O)N1C2CCC(C2)N1CC(O)C(Cc1ccccc1)NC(=O)OCc1ccccc1 (mixture of isomers),119 to 126
22,CCOc1cc2c(cc1S(=O)(=O)NC(=S)NC)C(CNC(=O)c1cc(Cl)ccc1OC)CCO2 (stereo not given),202
23,COC(OC)c1cnc(C)nc1N,102 to 104
24,O=c1c(Cl)c(-c2ccncn2)nc2n1CCCN2C[C@@H](O)c1ccccc1,158 to 160
25,FC(F)(F)Oc1ccc(-c2cncc(Cl)n2)cc1,58 to 60

row,Compound,melting point [°C]
1,CCOc1cc2ncnc(Cl)c2cc1OCC,141 to 143
2,CCOC(=O)Cc1c(C)ncnc1O,148 to 149
3,Cc1ccc(CNC(=O)C2=C(C(=O)Nc3ccc(Br)cc3F)CCCC2)cc1,167 to 168
4,N#Cc1ccc(C(CC(=O)O)N2C(=O)c3ccccc3C2=O)cc1 (stereo not given),134 to 137
5,CCC1=CC(=O)c2ccccc2C1=O,87 to 88
6,COc1ccc(S(=O)(=O)N2C(=O)C(O[Si](C)(C)C)(c3ccccc3OC)c3cc(Cl)c(C)cc32)c(OC)c1 (stereo not given),190 to 191
7,CNS(=O)(=O)Cc1cc(Br)c(N)c(Br)c1,155 to 157
8,COC(=O)C=C1C(=O)N(c2ccccc2)C(=O)N1Cc1ccccc1,130
9,O=C(Nc1ccc(F)cc1)N[C@H]1CCCN(C(=O)c2ccc(F)cc2)C1,228 to 231
10,Cc1cscc1NC(=S)Nc1cccc(C)c1N,184 to 186
11,N#Cc1ccc2cccc(N3CCN(CCCCOc4ccc5c(n4)NC(=O)NCC5)CC3)c2c1,168 to 170
12,O=C(N[C@H](Cc1cccc(OC(F)(F)C(F)F)c1)[C@@H](O)c1ccc(CN2CCCCC2)cc1)c1cccc2c1C=CCCC2 (racemic),104 to 106
13,COC(=O)CCC(=O)c1cc2c(=O)c3ccccc3ccc2s1,144 to 145
14,CCOC(=O)CO/N=C(\C(=O)Sc1nc2ccccc2s1)c1cc[nH]n1,112 to 114
15,N#Cc1sc2ccc(Br)cc2c1-c1ccccc1,145 to 146
16,COc1ccccc1-n1c(C(S)c2ncnc3[nH]cnc23)nc2cccc(Cl)c2c1=O (stereo not given),237
17,O=C(CN1CCN(c2nccs2)CC1)N1CCC(O)(c2cccc(C(F)(F)F)c2)CC1,157 to 158
18,CCOC(=O)CNCP(=O)(O)O,> 220
19,CN1CCC(c2nn(CO)c3ccccc23)CC1,128 to 130
20,O=C1N(Cc2ccc(-c3ccccc3C(F)(F)F)o2)c2ccccc2C12COc1cc3c(cc12)OCO3 (stereo not given),124 to 126
21,Nc1ccc(Oc2cccc3ccccc23)nc1,82.2 to 83.7
22,O=C1C2=C(CCCC2)C(=O)N1c1ccc(Cl)c2c1CC(CO)O2 (stereo not given),193 to 195
23,CCCSc1ncc(CC(N=C(c2ccccc2)c2ccccc2)C(=O)OCC)n1Cc1ccccc1Cl (stereo not given),178 to 181
24,CCCc1c(OCCCOc2ccc(CC(=O)O)cc2)ccc(C(C)=O)c1O,106 to 108
25,COc1ccccc1Nc1nc(N)nc2c(OC)cccc12,243 to 244

row,Compound,melting point [°C]
1,COC1CC(N2CCCC2)C(N(C)C(=O)COc2cccc(F)c2)CC1OC (stereo not given),119 to 121
2,Cc1ccc(C(=O)Nc2nc(=O)c3ccccc3n2C)cc1,235 to 238
3,COc1nc(C)nc(OC)c1C=S,136
4,Cn1c(C(F)(F)F)cc(=O)n(-c2cc(OCOc3ccc(Cl)cc3)c(Cl)cc2F)c1=O,120 to 122
5,OCc1cccc2cc(-c3ccccc3)oc12,118
6,CCc1c(O)n[nH]c1C,232 to 234
7,O=C(O)c1cc(S)cc2c1OCCO2,191 to 192
8,O=C(CCCCCCC(=O)N1CCN(CCc2ccc3ccccc3c2)CC1)NO,118 to 120
9,CC(C)c1nc(C#N)c(C#N)[nH]1,146 to 149
10,CCc1[nH]n(C2CCCC2)c2nc(Cc3ccc(OCc4nnn[nH]4)cc3)nc(=O)c1-2,240 to 242
11,CC(=O)OC1C(C)OC(n2c(Br)nc3cc(Cl)c(Cl)cc32)C1OC(C)=O (stereo not given),145 to 148
12,O[C@@H]1c2ccccc2CC[C@H]1NCc1ccccc1 (relative stereo),110 to 114
13,Cc1c(F)c(N)c(Cl)c2c1c(=O)c(C(=O)O)cn2-c1cc(N)c(F)cc1F,> 280
14,Fc1cc(F)c2c(c1)C[C@@H](n1c(CCNCc3ccccc3)c[nH]c1=S)CO2,188 to 190
15,CN(C)c1ccc(Cn2cnc3c(Cl)ncnc32)cc1,125 to 127
16,O=C1OC(O)(Nc2ccccc2Br)C(c2ccccc2)C1c1ccccc1 (stereo not given),162 to 164
17,COC(=O)c1nc2cc(C)cc(Cl)c2c(O)c1C(=O)OC,197 to 199
18,COC(=O)c1ccc(O)cc1NC(=O)C=Cc1ccc(-c2ccccc2)cc1,292 to 296
19,COc1cc(N)c(Cl)cc1C(=O)N[C@H]1CCN(CC#N)C[C@H]1OC (relative stereo),130
20,CCOC(=O)c1ccc(C2=CCCCC2)cc1,66
21,COC(=O)c1ccc(S(C)(=O)=O)nc1OC,88 to 90
22,COCOc1ccc(C(=O)c2ccc(OCc3nc(-c4ccccc4)oc3C)cc2)c(O)c1,105 to 107
23,CNC(=O)SC(C(=O)O)c1ccccc1 (stereo not given),128 to 129
24,CC(C)Cc1[nH]c(=O)[nH]c1-c1cc(C(C)(C)C)c(O)c(C(C)(C)C)c1,286 to 289
25,c1ccc2c(C3CNCCNCCNCCNCCN3)cccc2c1 (stereo not given),87 to 88
